This test deals with T1, SIRT1 (Homo sapiens, UniProt Q96EB6).
T1 sequence (Q96EB6 1-747): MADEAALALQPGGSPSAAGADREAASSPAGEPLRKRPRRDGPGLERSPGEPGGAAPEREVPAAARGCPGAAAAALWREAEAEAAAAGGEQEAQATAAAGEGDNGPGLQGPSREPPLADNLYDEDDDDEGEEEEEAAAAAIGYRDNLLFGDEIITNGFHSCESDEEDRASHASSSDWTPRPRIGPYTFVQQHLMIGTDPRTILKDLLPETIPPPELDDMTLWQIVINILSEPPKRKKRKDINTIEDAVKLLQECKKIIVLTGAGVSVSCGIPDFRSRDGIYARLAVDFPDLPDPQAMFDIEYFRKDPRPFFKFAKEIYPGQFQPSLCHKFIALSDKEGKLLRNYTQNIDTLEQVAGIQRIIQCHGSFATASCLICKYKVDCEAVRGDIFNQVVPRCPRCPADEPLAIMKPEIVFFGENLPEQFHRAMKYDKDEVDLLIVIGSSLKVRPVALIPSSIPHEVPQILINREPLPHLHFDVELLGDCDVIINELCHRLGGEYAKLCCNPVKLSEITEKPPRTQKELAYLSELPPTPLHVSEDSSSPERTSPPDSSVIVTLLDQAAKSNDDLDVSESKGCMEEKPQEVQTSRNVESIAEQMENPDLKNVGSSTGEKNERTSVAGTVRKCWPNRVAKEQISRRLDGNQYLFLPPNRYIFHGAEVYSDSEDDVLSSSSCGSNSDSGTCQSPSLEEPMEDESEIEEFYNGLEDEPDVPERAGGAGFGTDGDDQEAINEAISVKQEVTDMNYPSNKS
The experiment in a line: Trp mass spectrometry assay of SIRT1 activation (deacetylation of Ac-R-H-K-K(Ac)-W-NH2 peptide, OAADPR formation). Conditions: Trp peptide 0.5 μM, 120 μM βNAD+, 10 nM SIRT1, 25 min, 25° C.; for Emax: 25 min, read-out: TRP MAX RESP (percent maximum fold activation relative to control = 100%). Format: biochemical. In short, it runs like this: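 10 nM His-tagged SIRT1 (E. coli expressed) with 0.5 μM Ac-RHKK(Ac)W-NH2 and 120 μM βNAD+, 25 min at 25° C, HEPES pH 7.5, […]; formic acid stop. OAADPR or deacetylated peptide measured by mass spectrometry; EC1.5 = concentration giving 150% activity versus DMSO control; maximum activation also reported.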

As for `Cc1cc(-c2ccc3c(n2)N(C(=O)Nc2cnccn2)[C@H]2CCCN3C2)ccn1` [Example 13, (9S)-2-(2-methylpyridin-4-yl)-N-(pyrazin-2-yl)-8,9-dihydro-6H-5,9-methanopyrido[2,3-b] [1,4] diazocine-10(7H)-carboxamide], the Emax is not below 150% and the “TRP Activity (EC1.5, concentration of compound required to increase SIRT1 activity by 50% over control)” value was “A (EC1.5<1 μM)”.

Regarding `Cc1cc(-c2ccc3c(n2)N(C(=O)Nc2cncnc2)[C@H]2CCCN3C2)ccn1` [Example 16, (9S)-2-(2-methylpyridin-4-yl)-N-(pyrimidin-5-yl)-8,9-dihydro-6H-5,9-methanopyrido[2,3-b][1,4]diazocine-10(7H)-carboxamide], the Emax is not below 150% and the “TRP Activity (EC1.5, concentration of compound required to increase SIRT1 activity by 50% over control)” value is given as “B (EC1.5 1-25 μM)”.

`O=C(Nc1ccc(OC[C@@H](O)CO)cn1)N1c2nc(-c3cccc(C(F)(F)F)c3)c(Cl)cc2N2CCC[C@H]1C2` [Example 74, (9S)-3-chloro-N-(5-((S)-2,3-dihydroxypropoxy)pyridin-2-yl)-2-(3-(trifluoromethyl)phenyl)-8,9-dihydro-6H-5,9-methanopyrido[2,3-b][1,4]diazocine-10(7H)-carboxamide]: the Emax was not below 150% and the “TRP Activity (EC1.5, concentration of compound required to increase SIRT1 activity by 50% over control)” value was “A (EC1.5<1 μM)”.

In the case of `Cc1ncc(-c2ccnc(NC(=O)N3c4nc(C(=O)N[C@H](C)C(F)(F)F)c(Cl)cc4N4CCC[C@H]3C4)c2)o1` [Example 51, (9S)-3-chloro-N10-(4-(2-methyloxazol-5-yl)pyridin-2-yl)-N2-((R)-1,1,1-trifluoropropan-2-yl)-8,9-dihydro-6H-5,9-methanopyrido[2,3-b][1,4]diazocine-2,10(7H)-dicarboxamide], the Emax was not below 150% and the “TRP Activity (EC1.5, concentration of compound required to increase SIRT1 activity by 50% over control)” value is “A (EC1.5<1 μM)”.

Consider `Cc1ccc2c(NC(=O)N3c4nc(C(=O)NC5CC5(F)F)ccc4N4CCC[C@H]3C4)n[nH]c2n1` (single isomer, unassigned) [Example 53], for which the “TRP Activity (EC1.5, concentration of compound required to increase SIRT1 activity by 50% over control)” value is “A (EC1.5<1 μM)”.

Turning to `O=C(Nc1cnc(OC[C@@H](O)CO)cn1)N1c2nc(-c3cccc(C(F)(F)F)c3)c(Cl)cc2N2CCC[C@H]1C2` [Example 77, (9S)-3-chloro-N-(5-((S)-2,3-dihydroxypropoxy)pyrazin-2-yl)-2-(3-(trifluoromethyl)phenyl)-8,9-dihydro-6H-5,9-methanopyrido[2,3-b][1,4]diazocine-10(7H)-carboxamide], the Emax is not below 150% and the “TRP Activity (EC1.5, concentration of compound required to increase SIRT1 activity by 50% over control)” value is “A (EC1.5<1 μM)”.

Consider `Cc1cc(-c2ccc3c(n2)N(C(=O)Nc2cnn(C)c2)[C@H]2CCCN3C2)ccn1` [Example 26, (9S)-N-(1-methyl-1H-pyrazol-4-yl)-2-(2-methylpyridin-4-yl)-8,9-dihydro-6H-5,9-methanopyrido[2,3-b][1,4]diazocine-10(7H)-carboxamide], for which the Emax is not below 150% and the “TRP Activity (EC1.5, concentration of compound required to increase SIRT1 activity by 50% over control)” value was “B (EC1.5 1-25 μM)”.

Take `C[C@@H](NC(=O)c1ccc2c(n1)N(C(=O)Nc1ccc(OC[C@@H](O)CO)cn1)[C@H]1CCCN2C1)C(F)(F)F` [Example 54, (9S)-N10-(5-((S)-2,3-dihydroxypropoxy)pyridin-2-yl)-N2-((R)-1,1,1-trifluoropropan-2-yl)-8,9-dihydro-6H-5,9-methanopyrido[2,3-b][1,4]diazocine-2,10(7H)-dicarboxamide]: the Emax is not below 150% and the “TRP Activity (EC1.5, concentration of compound required to increase SIRT1 activity by 50% over control)” value is on record as “A (EC1.5<1 μM)”.

Take `O=C(Nc1cc(OC[C@H](O)CO)ncn1)N1c2nc(-c3cccc(C(F)(F)F)c3)c(Cl)cc2N2CCC[C@H]1C2` [Example 70, (9S)-3-chloro-N-(6-((R)-2,3-dihydroxypropoxy)pyrimidin-4-yl)-2-(3-(trifluoromethyl)phenyl)-8,9-dihydro-6H-5,9-methanopyrido[2,3-b][1,4]diazocine-10(7H)-carboxamide]: the Emax is not below 150% and the “TRP Activity (EC1.5, concentration of compound required to increase SIRT1 activity by 50% over control)” value is reported as “B (EC1.5 1-25 μM)”.

Take `O=C(Nc1cccnn1)N1c2nc(-c3ccnc(C(F)(F)F)c3)ccc2N2CCC[C@H]1C2` [Example 6, (9S)-N-(pyridazin-3-yl)-2-(2-(trifluoromethyl)pyridin-4-yl)-8,9-dihydro-6H-5,9-methanopyrido[2,3-b][1,4]diazocine-10(7H)-carboxamide]: the Emax was not below 150% and the “TRP Activity (EC1.5, concentration of compound required to increase SIRT1 activity by 50% over control)” value is on record as “A (EC1.5<1 μM)”.

As to `Cc1cc(-c2ccc3c(n2)N(C(=O)Nc2cncc(C)n2)[C@H]2CCCN3C2)ccn1` [Example 21], the Emax was not below 150% and the “TRP Activity (EC1.5, concentration of compound required to increase SIRT1 activity by 50% over control)” value is “B (EC1.5 1-25 μM)”.

For the molecule `Cc1ccc2c(NC(=O)N3c4nc(C(=O)NCC(F)(F)F)ccc4N4CCC[C@H]3C4)n[nH]c2n1` [Example 41, (9S)-N10-(6-methyl-1H-pyrazolo[3,4-b]pyridin-3-yl)-N2-(2,2,2-trifluoroethyl)-8,9-dihydro-6H-5,9-methanopyrido[2,3-b][1,4]diazocine-2,10(7H)-dicarboxamide], the Emax is not below 150% and the “TRP Activity (EC1.5, concentration of compound required to increase SIRT1 activity by 50% over control)” value is recorded as “A (EC1.5<1 μM)”.

Turning to `Cc1cc(C(=O)N[C@H](C)C(F)(F)F)nc2c1N1CCC[C@@H](C1)N2C(=O)Nc1cc(OC[C@H](O)CO)ccn1` [Example 57, (9S)-N10-(4-((R)-2,3-dihydroxypropoxy)pyridin-2-yl)-4-methyl-N2-((R)-1,1,1-trifluoropropan-2-yl)-8,9-dihydro-6H-5,9-methanopyrido[2,3-b][1,4]diazocine-2,10(7H)-dicarboxamide], the Emax was not below 150% and the “TRP Activity (EC1.5, concentration of compound required to increase SIRT1 activity by 50% over control)” value was “A (EC1.5<1 μM)”.

On to `O=C(Nc1cccc(OC[C@H](O)CO)n1)N1c2nc(-c3cccc(C(F)(F)F)c3)c(Cl)cc2N2CCC[C@H]1C2` [Example 65, (9S)-3-chloro-N-(6-((R)-2,3-dihydroxypropoxy)pyridin-2-yl)-2-(3-(trifluoromethyl)phenyl)-8,9-dihydro-6H-5,9-methanopyrido[2,3-b][1,4]diazocine-10(7H)-carboxamide], for which the Emax was not below 150% and the “TRP Activity (EC1.5, concentration of compound required to increase SIRT1 activity by 50% over control)” value is listed as “A (EC1.5<1 μM)”.

Regarding `O=C(Nc1cnccn1)c1cc2c(nc1N1CCCC(C(F)(F)F)C1)N[C@H]1CCCN2C1` (single isomer, unassigned) [Example 59], the Emax was not above 150%.

As to `O=C(Nc1cncc(F)c1)N1c2nc(-c3ccnc(C(F)(F)F)c3)ccc2N2CCC[C@H]1C2` [Example 2, (9S)-N-(5-fluoropyridin-3-yl)-2-(2-(trifluoromethyl)pyridin-4-yl)-8,9-dihydro-6H-5,9-methanopyrido[2,3-b][1,4]diazocine-10(7H)-carboxamide], the Emax was not below 150% and the “TRP Activity (EC1.5, concentration of compound required to increase SIRT1 activity by 50% over control)” value is recorded as “A (EC1.5<1 μM)”.

These data come from patent US20190048016A1, “SUBSTITUTED BRIDGED UREA ANALOGS AS SIRTUIN MODULATORS” (GlaxoSmithKline Intellectual Property(No.2)Limited, priority 2014, published 2019).
